Reference: patent publication US20240000860A1, “METHODS FOR TREATING AUTISM SPECTRUM DISORDER” (priority 2020, published 2024)
Marks after values point to notes of the source that are not given here.

Tests used:
Type in all cases: in vivo
mice [1] = test: Habituation over three days (distance traveled, time in center, ambulatory time); conditions: for Habituation exploration / Habituation time in center: behavioral assay summary, Yes/No; for habituation: total distance traveled and exploratory activity: over three days
Experimental: (§1) Mice were fed 80% of their total food as non-supplemented food (chow) for 4 days. For the next two weeks, mice were fed 80% of their total food as non-supplemented food and the remaining 20% was supplemented with selected metabolites(s). Mice were fed on food supplemented with various metabolites including 5-dodecacenoate (5D), glycodeoxycholate (GDC), ursodeoxycholate (UDC), or a control food lacking a supplement (CTL). Mouse behavior was tested using an elevated plus maze (FIG. 13), a three-chamber sociability test, and tracking wheel usage. During testing, mice were fed 80% of their total food as non-supplemented food and the remaining 20% was supplemented with the selected metabolites(s).
Habituation over was tested with the […] (FIG. 16). […] Significance was tested with an ANOVA test.
Habituation was measured by tracking the amount of time spent in the center of the chamber (FIG. 18).
Active time was also measured as total ambulatory time and center ambulatory time.

mice [2] = test: Elevated plus maze (anxiogenic behavior); conditions: for EPM closed arms / EPM open arms: behavioral assay summary, Yes/No; for active time in the closed arms of the maze / time spent in closed arms of elevated plus maze: vs control mice
Experimental: as §1
Anxiogenic behavior was tested by tracking time spent in closed arms of an elevated plus maze. Control mice were fed food lacking a supplement.

CNTNAP2 mice [3] = test: Gut microbiota taxonomic composition in colons with 5D supplementation
Experimental: Genera under the family Lachnospiraceae and Ruminococcaceae were consistently seen increased in CNTNAP2 mice and decreased with 5D supplementation.
P-values were determined using permanova and beta-dispersion tests. FIGS. 29B-29N show results of differential abundance test of ASVs aggregated at the genus level. […] P-values were determined using Wilcoxon rank sum test, values were reported as fold change of median of C57BL/6 controls.

[4] = tested on: gene pathways in mouse brain (prefrontal cortex); test: RNA sequencing of prefrontal cortex after supplemented metabolites: differentially expressed gene pathways; conditions: two weeks supplementation
Experimental: Transcriptomics data (RNA sequencing) was collected from the prefrontal cortex of 12-week old mice after consuming a low, medium, or high dosage of supplemented metabolites for two weeks. RNA sequencing used brain tissue to evaluate possible correlation between changes in relative changes in gene transcription with changes in behavior. The number of differentially expressed gene pathways at significance level of 0.05, 0.1, and 0.15 was determined (Table 1).

mice [5] = test: Three-chamber sociability test; conditions: for Sociability: behavioral assay summary, Yes/No
Experimental: as §1
Additionally, the effect of supplementation with the metabolites on sociability was measured with a three-chamber sociability test (FIG. 21). This chamber tested for responses to social novelty.

[6] = tested on: gene pathways in frontal cortex of CNTNAP2 mice; test: RNA-sequencing and gene set enrichment analysis of frontal cortex; conditions: for normalized enrichment score: 5D vs normal chow
Experimental: In this example, to further investigate 5D's effect on neuronal function, RNA-sequencing was performed on the frontal cortex region of CNTNAP2 mice supplemented with 5D after 3 weeks.
Bar size depicts enrichment score normalized by gene set size, and color depicts fdr corrected p-value as determined by gene set enrichment analysis. […] (CNTNAP-NormC: n=5, CNTNAP-5D: n=9)

mice [7] = test: Mouse wheel distance traveled; conditions: for night-time activity: after administering metabolites
Experimental: as §1
Lastly, mice fed with food supplemented with various metabolites were given a mouse wheel and distance traveled was tracked.

CNTNAP2 mice [8] = test: Lipidomic profiles and triglyceride levels in brain, plasma, liver and stool
Source text: Triglycerides were identified as influential in every tissue measured. Lipids were first aggregated into categories (e.g. triglycerides, phosphocholines), then PCA ordination was applied. […] P-values determined from permanova test between treatments are shown as annotations.
Intensities were normalized using CUDA calibration and were reported as log fold change of median of C57BL/6 wild type controls. P-values were derived from Wilcox rank sum test.

[9] = significance level 0.05, 12-week old mice
[10] = significance level 0.1, 12-week old mice
[11] = significance level 0.15, 12-week old mice
[12] = frontal cortex of CNTNAP2 mice after 3 weeks
[13] = treatment average vs Control Average
[14] = treatment average vs 5D Average

Question: Which results are given for `CCCCCCC=CCCCC(=O)O` [5D, 5-dodecenoate]?
Answer: Habituation exploration (mice [1]): Yes; Habituation time in center (mice [1]): Yes; habituation: total distance traveled and exploratory activity (mice [1]): lower total distance traveled and exploratory activity over three days; center ambulatory time (mice [1]; over time): increase in center ambulatory time over time; time spent in the center of the chamber (mice [1]; over time): increase in time spent in the center of the chamber over time; EPM closed arms (mice [2]): Yes; EPM open arms (mice [2]): No; active time in the closed arms of the maze (mice [2]): lower active time in the closed arms of the maze than control mice; time spent in closed arms of elevated plus maze (mice [2]): spent less time in the closed arms of the maze; Romboutsia ilealis levels (CNTNAP2 mice [3]; CNTNAP2 mice): found at very high levels in some CNTNAP2 mice; ten genera of bacteria increased in CNTNAP2 mice compared to C57BL/6 (CNTNAP2 mice [3]; Wilcoxon rank sum test): significantly decreased; taxonomic composition of gut microbiota (CNTNAP2 mice [3]; oral supplementation, CNTNAP2 mice vs C57BL/6 wild types): shifts the taxonomic composition of CNTNAP2 mice; Differentially Expressed Gene Pathways in Mouse Brain [4, 9]: 0; Differentially Expressed Gene Pathways in Mouse Brain [4, 10]: 216; Differentially Expressed Gene Pathways in Mouse Brain [4, 11]: 235; Sociability (mice [5]): Yes; time spent with a new mouse, compared among treatments (mice [5]; mouse, in vivo): spent the most time with a new mouse; time spent with novel mouse ('new') vs known mouse ('old') (mice [5]; response to social novelty): spent more time with a novel mouse; normalized enrichment score ([6]; R-MMU-112314 Neurotransmitter receptors and postsynaptic signal transmission): −2.033; normalized enrichment score ([6]; R-MMU-112315 Transmission across Chemical Synapses): −1.846; normalized enrichment score ([6]; R-MMU-112316 Neuronal System): −2.025; normalized enrichment score ([6]; R-MMU-114604 GPVI-mediated activation cascade): 1.832; normalized enrichment score ([6]; R-MMU-181431 Acetylcholine binding and downstream events): −2.154; normalized enrichment score ([6]; R-MMU-195721 Signaling by WNT): −1.416; normalized enrichment score ([6]; R-MMU-198933 Immunoregulatory interactions between a Lymphoid and a non-Lymphoid cell): 1.706; normalized enrichment score ([6]; R-MMU-202733 Cell surface interactions at the vascular wall): 1.736; normalized enrichment score ([6]; R-MMU-216083 Integrin cell surface interactions): 1.99; normalized enrichment score ([6]; R-MMU-397014 Muscle contraction): −1.646; normalized enrichment score ([6]; R-MMU-418360 Platelet calcium homeostasis): −2.258; normalized enrichment score ([6]; R-MMU-419037 NCAM1 interactions): 1.823; normalized enrichment score ([6]; R-MMU-622323 Presynaptic nicotinic acetylcholine receptors): −2.107; normalized enrichment score ([6]; R-MMU-622327 Postsynaptic nicotinic acetylcholine receptors): −2.154; normalized enrichment score ([6]; R-MMU-629594 Highly calcium permeable postsynaptic nicotinic acetylcholine receptors): −2.095; normalized enrichment score ([6]; R-MMU-983168 Antigen processing: Ubiquitination and Proteasome degradation): −1.55; normalized enrichment score ([6]; R-MMU-1296071 Potassium Channels): −1.854; normalized enrichment score ([6]; R-MMU-1296072 Voltage gated Potassium channels): −1.912; normalized enrichment score ([6]; R-MMU-1442490 Collagen degradation): 2.005; normalized enrichment score ([6]; R-MMU-1474228 Degradation of the extracellular matrix): 1.968; normalized enrichment score ([6]; R-MMU-1474244 Extracellular matrix organization): 1.79; normalized enrichment score ([6]; R-MMU-1474290 Collagen formation): 2.185; normalized enrichment score ([6]; R-MMU-1650814 Collagen biosynthesis and modifying enzymes): 2.145; normalized enrichment score ([6]; R-MMU-2022090 Assembly of collagen fibrils and other multimeric structures): 2.261; normalized enrichment score ([6]; R-MMU-2022857 Keratan sulfate degradation): 1.893; normalized enrichment score ([6]; R-MMU-3928664 Ephrin signaling): −2.03; normalized enrichment score ([6]; R-MMU-5576891 Cardiac conduction): −1.669; normalized enrichment score ([6]; R-MMU-5668599 RHO GTPases Activate NADPH Oxidases): 1.842; normalized enrichment score ([6]; R-MMU-5686938 Regulation of TLR by endogenous ligand): 1.963; normalized enrichment score ([6]; R-MMU-6794361 Neurexins and neuroligins): −1.973; normalized enrichment score ([6]; R-MMU-6794362 Protein-protein interactions at synapses): −2.181; normalized enrichment score ([6]; R-MMU-6798695 Neutrophil degranulation): 1.588; normalized enrichment score ([6]; R-MMU-6803157 Antimicrobial peptides): 1.959; normalized enrichment score ([6]; R-MMU-6811436 COPI-independent Golgi-to-ER retrograde traffic): −1.957; normalized enrichment score ([6]; R-MMU-8878159 Transcriptional regulation by RUNX3): −1.748; normalized enrichment score ([6]; R-MMU-8948216 Collagen chain trimerization): 2.098; normalized enrichment score ([6]; R-MMU-8951664 Neddylation): −1.571; expression of collagen, extracellular matrix, cell structure and interaction pathways [6, 12]: increased the expression of pathways such as collagen formation; expression of innate immunity pathways [6, 12]: increased expression of pathways that relate to innate immunity; expression of synapse-dependent pathways [6, 12]: decreased expression of synapse-dependent pathways; genes significantly modulated (p<0.05) [6, 12]: 1438; night-time activity (mice [7]): night-time activity increased; Adjusted p value, comparison of average distance traveled (mice [7]; [13]): 0.01466*; lipid profiles in brain and stool (CNTNAP2 mice [8]): tended to shift brain and stool profiles, though this shift was not statistically significant; lipid profiles in plasma and liver (CNTNAP2 mice [8]): significantly shift CNTNAP2 mouse lipid profiles in plasma and liver; triglyceride levels in brain, liver, plasma and stool (CNTNAP2 mice [8]; dietary supplementation): decreased the levels significantly in each of the tissues

Question: Which Habituation exploration (mice [1]) does the source give for `C[C@H](CCC(=O)NCC(=O)O)[C@H]1CC[C@H]2[C@@H]3CC[C@@H]4C[C@H](O)CC[C@]4(C)[C@H]3C[C@H](O)[C@]12C` [GDC, glycodeoxycholate] here?
Answer: The Habituation exploration was “Yes”.

Question: And the “Habituation time in center” value (mice [1])?
Answer: Its value is “No”.

Question: What about the “habituation: total distance traveled and exploratory activity” value (mice [1]) of the same compound?
Answer: Its value is “lower total distance traveled and exploratory activity over three days”.

Question: What about the EPM closed arms (mice [2]) of the same compound?
Answer: The EPM closed arms was “No”.

Question: And the EPM open arms (mice [2])?
Answer: The EPM open arms was “No”.

Question: What about the “time spent in closed arms of elevated plus maze” value (mice [2]) of the same compound?
Answer: Its value is “did not spend significantly more time in closed arms than control mice”.

Question: And the “Differentially Expressed Gene Pathways in Mouse Brain” value [4, 9]?
Answer: Its value is 153.

Question: And the “Differentially Expressed Gene Pathways in Mouse Brain” value [4, 10]?
Answer: The value was 277.

Question: And the “Differentially Expressed Gene Pathways in Mouse Brain” value [4, 11]?
Answer: The value was 291.

Question: And the Sociability (mice [5])?
Answer: Its Sociability is “No”.

Question: What about the night-time activity (mice [7]) of the same compound?
Answer: Its night-time activity is “night-time activity increased”.

Question: And the “Adjusted p value, comparison of average distance traveled” value (“Adjusted p value, comparison” below) (mice [7]; [14])?
Answer: Its value is 0.2762.

Question: And the “Adjusted p value, comparison” value (mice [7]; [13])?
Answer: The value was 0.0000114*.

Question: What does the source list for `N[C@@H](CCC(=O)O)C(=O)O` [Glutamate, glutamate]?
Answer: Differentially Expressed Gene Pathways in Mouse Brain [4, 9]: 0; Differentially Expressed Gene Pathways in Mouse Brain [4, 10]: 0; Differentially Expressed Gene Pathways in Mouse Brain [4, 11]: 107

Question: For `CC(=O)N[C@@H](CCC(=O)O)C(=O)O` [N-acetyl-L-glutamate], which “Differentially Expressed Gene Pathways in Mouse Brain” value [4, 9] is on record?
Answer: The value was 82.

Question: What about the “Differentially Expressed Gene Pathways in Mouse Brain” value [4, 10] of the same compound?
Answer: Its value is 145.

Question: And the “Differentially Expressed Gene Pathways in Mouse Brain” value [4, 11]?
Answer: Its value is 177.

Question: For `C[C@H](CCC(=O)O)[C@H]1CC[C@H]2[C@@H]3[C@@H](O)C[C@@H]4C[C@H](O)CC[C@]4(C)[C@H]3CC[C@]12C` [UDC, ursodeoxycholate], which Habituation exploration (mice [1]) is on record?
Answer: The Habituation exploration was “No”.

Question: And the “Habituation time in center” value (mice [1])?
Answer: The value was “No”.

Question: What about the “habituation: total distance traveled and exploratory activity” value (mice [1]) of the same compound?
Answer: The value was “did not decrease the total distance traveled on day three compared to day two”.

Question: What about the EPM closed arms (mice [2]) of the same compound?
Answer: Its EPM closed arms is “Yes”.

Question: What about the EPM open arms (mice [2]) of the same compound?
Answer: Its EPM open arms is “No”.

Question: What about the “active time in the closed arms of the maze” value (mice [2]) of the same compound?
Answer: Its value is “lower active time in the closed arms of the maze than control mice”.

Question: What about the “time spent in closed arms of elevated plus maze” value (mice [2]) of the same compound?
Answer: The value was “spent less time in the closed arms of the maze”.

Question: And the “Differentially Expressed Gene Pathways in Mouse Brain” value [4, 9]?
Answer: Its value is 0.

Question: What about the “Differentially Expressed Gene Pathways in Mouse Brain” value [4, 10] of the same compound?
Answer: Its value is 0.

Question: And the “Differentially Expressed Gene Pathways in Mouse Brain” value [4, 11]?
Answer: The value was 104.

Question: And the Sociability (mice [5])?
Answer: Its Sociability is “No”.

Question: What about the night-time activity (mice [7]) of the same compound?
Answer: Its night-time activity is “night-time activity increased”.

Question: What about the “Adjusted p value, comparison” value (mice [7]; [14]) of the same compound?
Answer: Its value is 0.00000000.

Question: What about the “Adjusted p value, comparison” value (mice [7]; [13]) of the same compound?
Answer: The value was 0.00000000*.

Question: And the “Adjusted p value, comparison” value (mice [7]; treatment average vs GDC Average)?
Answer: The value was 0.0000141.
